Assay results: PMC12664493, “Asparagine endopeptidase (AEP) inhibitor formulation via zein-based nanoparticle improves the therapeutic efficacy toward Alzheimer's disease” (Neurotherapeutics, 2025)
“And” between values parts separate entries of the source, which are not always exact repeats. Equal entries are not always repeated. Where two headings read alike, the source gives them in different places.

Experiments:
[1] = Stability in mouse liver microsomes; assay type: in vitro ADME; settings: read-out: Stability-Microsomes T1/2
[2] = biological target: T1, P-glycoprotein (MDR1) (Homo sapiens, UniProt P08183); test: MDR1-MDCKII permeability assay (P-glycoprotein efflux); assay type: in vitro ADME; settings: dog, MDCK-MDR1
T1 construct: expressed in transfected cells; host or cells: MDCKII
T1 sequence (P08183 whole entry): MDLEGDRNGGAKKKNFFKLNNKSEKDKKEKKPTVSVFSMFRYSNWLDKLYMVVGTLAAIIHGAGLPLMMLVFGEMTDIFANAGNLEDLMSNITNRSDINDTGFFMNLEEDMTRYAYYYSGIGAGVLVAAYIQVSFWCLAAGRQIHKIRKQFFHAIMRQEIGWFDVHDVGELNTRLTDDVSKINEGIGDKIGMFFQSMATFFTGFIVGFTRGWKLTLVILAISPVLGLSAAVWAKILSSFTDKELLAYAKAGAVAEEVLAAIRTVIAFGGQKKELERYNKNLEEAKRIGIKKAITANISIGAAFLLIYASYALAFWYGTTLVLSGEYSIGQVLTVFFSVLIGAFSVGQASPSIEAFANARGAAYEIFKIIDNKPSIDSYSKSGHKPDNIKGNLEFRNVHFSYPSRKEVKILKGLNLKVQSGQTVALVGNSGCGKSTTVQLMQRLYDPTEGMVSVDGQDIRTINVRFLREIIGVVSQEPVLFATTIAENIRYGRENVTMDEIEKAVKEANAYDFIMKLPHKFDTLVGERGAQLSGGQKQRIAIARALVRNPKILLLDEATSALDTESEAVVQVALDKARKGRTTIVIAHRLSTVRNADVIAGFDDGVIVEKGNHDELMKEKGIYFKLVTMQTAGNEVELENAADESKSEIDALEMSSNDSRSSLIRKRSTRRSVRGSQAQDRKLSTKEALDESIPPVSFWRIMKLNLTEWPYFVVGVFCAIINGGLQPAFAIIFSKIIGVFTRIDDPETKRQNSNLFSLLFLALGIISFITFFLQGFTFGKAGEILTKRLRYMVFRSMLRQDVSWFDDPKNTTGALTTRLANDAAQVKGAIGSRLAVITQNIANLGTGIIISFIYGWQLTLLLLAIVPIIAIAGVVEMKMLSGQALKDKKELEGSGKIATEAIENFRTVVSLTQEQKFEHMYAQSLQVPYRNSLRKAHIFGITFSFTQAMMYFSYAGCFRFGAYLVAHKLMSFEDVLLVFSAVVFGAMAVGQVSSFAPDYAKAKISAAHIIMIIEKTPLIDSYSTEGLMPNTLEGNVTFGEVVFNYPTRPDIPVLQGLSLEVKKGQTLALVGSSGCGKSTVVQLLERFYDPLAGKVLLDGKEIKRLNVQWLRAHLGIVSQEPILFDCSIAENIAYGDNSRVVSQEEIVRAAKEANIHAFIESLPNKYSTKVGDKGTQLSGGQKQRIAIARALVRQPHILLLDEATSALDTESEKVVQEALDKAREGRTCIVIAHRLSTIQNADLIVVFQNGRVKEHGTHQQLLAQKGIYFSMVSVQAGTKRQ

[3] = Stability in human liver microsomes; assay type: in vitro ADME
[4] = Stability in mouse plasma; assay type: in vitro ADME; settings: read-out: Stability-Plasma T1/2
[5] = Stability in human plasma; assay type: in vitro ADME; settings: read-out: Stability-Plasma T1/2
[6] = Stability in mouse hepatocytes; assay type: in vitro ADME
[7] = Solubility (pH 7.4, PBS); assay type: physicochemical
[8] = biological target: T2, AEP (Rattus norvegicus, UniProt Q9R0J8); test: AEP inhibition in cultured primary neurons; assay type: cell-based
T2 construct: endogenous in cells; host or cells: primary rat cortical neurons
T2 sequence (Q9R0J8 18-435): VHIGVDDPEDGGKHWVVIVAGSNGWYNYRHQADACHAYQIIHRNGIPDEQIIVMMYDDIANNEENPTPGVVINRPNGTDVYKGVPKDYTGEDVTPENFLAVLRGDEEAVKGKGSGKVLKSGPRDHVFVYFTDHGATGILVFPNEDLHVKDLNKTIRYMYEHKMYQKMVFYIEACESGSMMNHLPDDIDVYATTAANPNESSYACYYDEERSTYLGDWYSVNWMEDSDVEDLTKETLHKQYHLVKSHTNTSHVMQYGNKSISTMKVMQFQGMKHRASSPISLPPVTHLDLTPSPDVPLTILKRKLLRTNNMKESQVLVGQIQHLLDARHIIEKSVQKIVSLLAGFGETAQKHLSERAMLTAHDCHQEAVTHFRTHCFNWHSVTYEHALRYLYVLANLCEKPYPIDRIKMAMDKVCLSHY

[9] = Plasma protein binding, human; assay type: in vitro ADME
[10] = In vivo pharmacokinetics in CD-1 (ICR) mice, plasma and brain, LC-MS/MS; settings: mouse
Text: (§1) Blood and brain tissues were collected at 0, 0.08, 0.25, 0.5, 1, 2, 4, and 8 h post-administration. For acute pharmacodynamic (PD) assessments, male and female 3xTg mice received oral doses of NP-11a-isopropyl at 7.5 mg/kg or 15 mg/kg, and blood and brain samples were collected 2 h after treatment.

[11] = biological target: T2, AEP; test: Titration assay of Aβ42-induced AEP activation in primary neurons (immunoblotting); assay type: cell-based; settings: 2 μM pre-aggregated Aβ42, 24 h
[12] = tested on: 3xTg mice; test: Y-maze test in 3xTg mice; assay type: in vivo, mouse; settings: 7.5 mg/kg P.O. daily, one month
Text: as §1
The Y-maze test was employed to evaluate spatial working memory and spontaneous alternation behavior, a measure of natural exploratory pattern integrity. The apparatus comprised three symmetrical opaque arms (A, B, C; 30 cm length × 8 cm width × 15 cm height) intersecting at 120° angles to form a Y-shaped configuration. Mice were habituated to the maze during a 5-min acclimatization period to minimize novelty-induced anxiety. Following habituation, spontaneous exploration was recorded for 8 min using an overhead camera, with all trials conducted under consistent low-light conditions to reduce environmental stress. EthoVision XT 12 software (Noldus, Wageningen, The Netherlands) quantified total arm entries, entry sequences, and alternation patterns (consecutive entries into three distinct arms without repetition). The maze was thoroughly cleaned with 70 % ethanol between trials to eliminate olfactory cues.

[13] = Stability in human hepatocytes; assay type: in vitro ADME
[14] = Plasma protein binding, mouse; assay type: in vitro ADME
[15] = biological target: T3, AEP (Mus musculus, UniProt O89017); test: Acute PD in 3xTg mice: brain AEP enzymatic activity and immunoblotting; assay type: in vivo; settings: 2 h
T3 construct: from tissue; host or cells: brain / hippocampus of 3xTg mice
T3 sequence (O89017 18-435): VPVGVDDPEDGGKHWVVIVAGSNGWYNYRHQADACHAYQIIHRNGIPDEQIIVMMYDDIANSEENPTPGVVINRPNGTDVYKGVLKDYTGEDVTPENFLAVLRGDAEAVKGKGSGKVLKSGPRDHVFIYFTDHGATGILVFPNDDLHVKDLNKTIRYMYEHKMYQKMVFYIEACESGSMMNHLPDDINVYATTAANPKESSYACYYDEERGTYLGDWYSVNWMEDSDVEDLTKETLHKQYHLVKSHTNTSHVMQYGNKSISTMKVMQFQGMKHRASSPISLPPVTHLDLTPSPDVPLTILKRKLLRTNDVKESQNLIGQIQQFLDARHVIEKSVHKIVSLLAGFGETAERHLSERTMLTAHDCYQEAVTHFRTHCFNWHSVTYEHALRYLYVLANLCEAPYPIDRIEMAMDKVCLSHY

[16] = Caco-2 permeability; assay type: in vitro ADME; settings: human
[17] = read-out: Stability-Hepatocytes T1/2
[18] = male, CD-1 (ICR), plasma, iv, I.V. 2 mg/kg
[19] = male, CD-1 (ICR), plasma, po, P.O. 5 mg/kg

- half-life [1]: > 27.7 min
- Papp A→B ([2]; a-b, first value in brackets): 0.568 ×10⁻⁶ cm/s
- Papp B→A ([2]; b-a, second value in brackets): 61.9 ×10⁻⁶ cm/s
- microsomal CLint [3]: 3.6 µL/min/mg
- half-life ([3]; read-out: Stability-Microsomes T1/2): > 240 min
- half-life [4]: > 480 min
- half-life [5]: > 480 min
- hepatocyte CLint [6]: 9 µL/min/1e6 cells
- half-life [6, 17]: 153 min
- solubility ([7]; aqueous buffer, pH 7.4, read-out: Solubility (pH, media)): 2450 µg/mL
- solubility ([7]; pH 7.4, aqueous buffer, pH7.4, read-out: Solubility (pH, media)): 6.25 mM
- IC50 [8]: 0.063 µM
- Plasma Protein F u, plasma(%) [9]: 13.8%
- MRT last ([10]; male, CD-1 (ICR), brain, iv, I.V. 2 mg/kg, read-out: Brain MRT (0-t)): 143 min
- Tmax ([10]; male, CD-1 (ICR), brain, iv, I.V. 2 mg/kg, read-out: Brain Tmax): 4.8 min
- MRT last ([10]; male, CD-1 (ICR), brain, po, P.O. 5 mg/kg, read-out: Brain MRT (0-t)): 130 min
- Tmax ([10]; male, CD-1 (ICR), brain, po, P.O. 5 mg/kg, read-out: Brain Tmax): 11.6 min
- half-life ([10]; male, CD-1 (ICR), brain, iv, 2 mg/kg, I.V. 2 mg/kg, read-out: Brain t1/2 (converted)): ~120 min
- half-life ([10]; male, CD-1 (ICR), brain, po, 5 mg/kg, P.O. 5 mg/kg, read-out: Brain t1/2 (converted)): 144 min
- clearance ([10]; male, CD-1 (ICR), plasma, iv, 2 mg/kg, I.V. 2 mg/kg, read-out: Plasma CLz (converted)): 13.8 mL/min/kg
- half-life ([10]; male, CD-1 (ICR), plasma, iv, 2 mg/kg, I.V. 2 mg/kg, read-out: Plasma t1/2 (converted)): 53.4 min
- bioavailability ([10]; male, CD-1 (ICR), plasma, oral, 5 mg/kg, P.O. 5 mg/kg vs I.V. 2 mg/kg, read-out: F* (%) oral bioavailability): ~67.2%
- half-life ([10]; male, CD-1 (ICR), plasma, po, 5 mg/kg, P.O. 5 mg/kg, read-out: Plasma t1/2 (converted)): ~43.8 min
- AUC(0-t) [10, 18]: 2410 ng·h/mL
- Cmax [10, 18]: 5160 ng/mL
- MRT last ([10]; male, CD-1 (ICR), plasma, iv, I.V. 2 mg/kg, read-out: Plasma MRT (0-t)): 33.4 min
- Tmax ([10]; male, CD-1 (ICR), plasma, iv, I.V. 2 mg/kg, read-out: Plasma Tmax): 4.8 min
- AUC(0-t) [10, 19]: 4050 ng·h/mL
- Cmax [10, 19]: 4770 ng/mL
- MRT last ([10]; male, CD-1 (ICR), plasma, po, P.O. 5 mg/kg, read-out: Plasma MRT (0-t)): 50.9 min
- Tmax ([10]; male, CD-1 (ICR), plasma, po, P.O. 5 mg/kg, read-out: Plasma Tmax): 8.22 min
- Brain AUC (0-t) ([10]; I.V. 2 mg/kg, 2 mg/kg): approximately 921.71 ng/mL·h
- Brain Cmax ([10]; I.V. 2 mg/kg, 2 mg/kg): 306.77 ng/mL
- Brain AUC (0-t) ([10]; P.O. 5 mg/kg, 5 mg/kg): ~385.36 ng·h/mL and 385.358 ng·h/mL
- Brain Cmax ([10]; P.O. 5 mg/kg, 5 mg/kg): 321.25 ng/mL and 321.248 ng/mL
- hepatocyte CLint [13]: 22 µL/min/1e6 cells
- half-life [13, 17]: 63.1 min
- Plasma Protein F u, plasma(%) [14]: 20.4%
- fraction unbound ([14]; plasma, as a fraction, from Table S1, read-out: Unbound plasma fraction (fu, plasma)): 0.204
- AEP enzymatic activity in the brain ([15]; acute P.O. 7.5 and 15 mg/kg, dose-dependent): substantially inhibited
- Active AEP band intensity, hippocampus immunoblotting ([15]; acute P.O.): further suppressed
- Papp A→B ([16]; a-b, first value of the cell): 6.34 ×10⁻⁶ cm/s
- Papp B→A ([16]; value after the slash, head names only a-b, read-out: Permeability-Caco-2 Papp, second value of the cell (taken as b-a)): 23.6 ×10⁻⁶ cm/s
SMILES: CC(C)Nc1nnc(Nc2cc(CO)c(N3CCOCC3)c3nonc23)s1 [11a-isopropyl]
- Aβ42-induced AEP activation [11]: suppressed AEP activation in a dose-dependent manner
- Cognitive function in the Y maze [12]: significantly improved
